Each compound was assayed on HCI-010 (organoid from a breast cancer xenograft) (assay: CTG-3D luminescence at 96 h relative to day-0 seeding control (ratio to day 0); higher = more growth / less cytotoxicity; PDxO 3D drug screen, 96 h, CTG-3D normalised to day-0 seeding control.). Conditions: 0.005 µM; days in culture: 103.

SMILES | CTG-3D luminescence at 96 h
COc1cc2c(Oc3ccc4[nH]c(C)cc4c3F)ncnc2cc1OCCCN1CCCC1 [cediranib] | 3.17
CC(C)n1nc(-c2ccc3oc(N)nc3c2)c2c(N)ncnc21 [sapanisertib] | 3
Cc1cc(Nc2ncnc3ccc(NC4=NC(C)(C)CO4)cc23)ccc1Oc1ccn2ncnc2c1 [tucatinib] | 3.45
C[C@H](NC(=O)CCC(F)(F)F)C(=O)N[C@@H]1C(=O)N(CCO)c2ncccc2-c2ccccc21 [crenigacestat] | 3.34
C[C@]12CC[C@@H]3c4ccc(O)cc4C[C@@H](CCCCCCCCC[S+]([O-])CCCC(F)(F)C(F)(F)F)[C@H]3[C@@H]1CC[C@@H]2O (some centres not stated) [fulvestrant] | 3.47
O=C(c1ccc(F)c(F)c1Nc1ccc(I)cc1F)N1CC(O)([C@@H]2CCCCN2)C1 [cobimetinib] | 3.78
O=C(/C=C/c1cccnc1)NCCCCC1CCN(C(=O)c2ccccc2)CC1 [FK866] | 2.07
CS(=O)(=O)c1ccc(C(=O)Nc2ccc(Cl)c(-c3ccccn3)c2)c(Cl)c1 [vismodegib] | 3
C=CCn1c(=O)c2cnc(Nc3ccc(N4CCN(C)CC4)cc3)nc2n1-c1cccc(C(C)(C)O)n1 [adavosertib] | 3.59

Same assay, conditions: 0.1 µM; days in culture: 52

SMILES | CTG-3D luminescence at 96 h
COc1cc2c(Oc3ccc4[nH]c(C)cc4c3F)ncnc2cc1OCCCN1CCCC1 [cediranib] | 2.46
CC(C)n1nc(-c2ccc3oc(N)nc3c2)c2c(N)ncnc21 [sapanisertib] | 0.958
Cc1cc(Nc2ncnc3ccc(NC4=NC(C)(C)CO4)cc23)ccc1Oc1ccn2ncnc2c1 [tucatinib] | 2.37
C[C@H](NC(=O)CCC(F)(F)F)C(=O)N[C@@H]1C(=O)N(CCO)c2ncccc2-c2ccccc21 [crenigacestat] | 2.54
C[C@]12CC[C@@H]3c4ccc(O)cc4C[C@@H](CCCCCCCCC[S+]([O-])CCCC(F)(F)C(F)(F)F)[C@H]3[C@@H]1CC[C@@H]2O (some centres not stated) [fulvestrant] | 2.46
O=C(c1ccc(F)c(F)c1Nc1ccc(I)cc1F)N1CC(O)([C@@H]2CCCCN2)C1 [cobimetinib] | 2.62
O=C(/C=C/c1cccnc1)NCCCCC1CCN(C(=O)c2ccccc2)CC1 [FK866] | 0.204
CS(=O)(=O)c1ccc(C(=O)Nc2ccc(Cl)c(-c3ccccn3)c2)c(Cl)c1 [vismodegib] | 2.26
C=CCn1c(=O)c2cnc(Nc3ccc(N4CCN(C)CC4)cc3)nc2n1-c1cccc(C(C)(C)O)n1 [adavosertib] | 1.87

Same assay, conditions: 0.1 µM; days in culture: 65

SMILES | CTG-3D luminescence at 96 h
COc1cc2c(Oc3ccc4[nH]c(C)cc4c3F)ncnc2cc1OCCCN1CCCC1 [cediranib] | 1.77
CC(C)n1nc(-c2ccc3oc(N)nc3c2)c2c(N)ncnc21 [sapanisertib] | 0.701
Cc1cc(Nc2ncnc3ccc(NC4=NC(C)(C)CO4)cc23)ccc1Oc1ccn2ncnc2c1 [tucatinib] | 1.81
C[C@H](NC(=O)CCC(F)(F)F)C(=O)N[C@@H]1C(=O)N(CCO)c2ncccc2-c2ccccc21 [crenigacestat] | 1.64
C[C@]12CC[C@@H]3c4ccc(O)cc4C[C@@H](CCCCCCCCC[S+]([O-])CCCC(F)(F)C(F)(F)F)[C@H]3[C@@H]1CC[C@@H]2O (some centres not stated) [fulvestrant] | 1.82
O=C(c1ccc(F)c(F)c1Nc1ccc(I)cc1F)N1CC(O)([C@@H]2CCCCN2)C1 [cobimetinib] | 1.67
O=C(/C=C/c1cccnc1)NCCCCC1CCN(C(=O)c2ccccc2)CC1 [FK866] | 0.29
CS(=O)(=O)c1ccc(C(=O)Nc2ccc(Cl)c(-c3ccccn3)c2)c(Cl)c1 [vismodegib] | 1.6
C=CCn1c(=O)c2cnc(Nc3ccc(N4CCN(C)CC4)cc3)nc2n1-c1cccc(C(C)(C)O)n1 [adavosertib] | 1.64

Same assay, conditions: 0.1 µM; days in culture: 103

SMILES | CTG-3D luminescence at 96 h
COc1cc2c(Oc3ccc4[nH]c(C)cc4c3F)ncnc2cc1OCCCN1CCCC1 [cediranib] | 3.43
CC(C)n1nc(-c2ccc3oc(N)nc3c2)c2c(N)ncnc21 [sapanisertib] | 1.48
Cc1cc(Nc2ncnc3ccc(NC4=NC(C)(C)CO4)cc23)ccc1Oc1ccn2ncnc2c1 [tucatinib] | 3.39
C[C@H](NC(=O)CCC(F)(F)F)C(=O)N[C@@H]1C(=O)N(CCO)c2ncccc2-c2ccccc21 [crenigacestat] | 3.15
C[C@]12CC[C@@H]3c4ccc(O)cc4C[C@@H](CCCCCCCCC[S+]([O-])CCCC(F)(F)C(F)(F)F)[C@H]3[C@@H]1CC[C@@H]2O (some centres not stated) [fulvestrant] | 3.46
O=C(c1ccc(F)c(F)c1Nc1ccc(I)cc1F)N1CC(O)([C@@H]2CCCCN2)C1 [cobimetinib] | 3.21
O=C(/C=C/c1cccnc1)NCCCCC1CCN(C(=O)c2ccccc2)CC1 [FK866] | 0.97
CS(=O)(=O)c1ccc(C(=O)Nc2ccc(Cl)c(-c3ccccn3)c2)c(Cl)c1 [vismodegib] | 3.14
C=CCn1c(=O)c2cnc(Nc3ccc(N4CCN(C)CC4)cc3)nc2n1-c1cccc(C(C)(C)O)n1 [adavosertib] | 2.95

Same assay, conditions: 1 µM; days in culture: 52

SMILES | CTG-3D luminescence at 96 h
COc1cc2c(Oc3ccc4[nH]c(C)cc4c3F)ncnc2cc1OCCCN1CCCC1 [cediranib] | 2.24
CC(C)n1nc(-c2ccc3oc(N)nc3c2)c2c(N)ncnc21 [sapanisertib] | 0.693
Cc1cc(Nc2ncnc3ccc(NC4=NC(C)(C)CO4)cc23)ccc1Oc1ccn2ncnc2c1 [tucatinib] | 2.53
C[C@H](NC(=O)CCC(F)(F)F)C(=O)N[C@@H]1C(=O)N(CCO)c2ncccc2-c2ccccc21 [crenigacestat] | 2.37
C[C@]12CC[C@@H]3c4ccc(O)cc4C[C@@H](CCCCCCCCC[S+]([O-])CCCC(F)(F)C(F)(F)F)[C@H]3[C@@H]1CC[C@@H]2O (some centres not stated) [fulvestrant] | 2.2
O=C(c1ccc(F)c(F)c1Nc1ccc(I)cc1F)N1CC(O)([C@@H]2CCCCN2)C1 [cobimetinib] | 2.15
O=C(/C=C/c1cccnc1)NCCCCC1CCN(C(=O)c2ccccc2)CC1 [FK866] | 0.17
CS(=O)(=O)c1ccc(C(=O)Nc2ccc(Cl)c(-c3ccccn3)c2)c(Cl)c1 [vismodegib] | 2.4
C=CCn1c(=O)c2cnc(Nc3ccc(N4CCN(C)CC4)cc3)nc2n1-c1cccc(C(C)(C)O)n1 [adavosertib] | 1

Same assay, conditions: 1 µM; days in culture: 65

SMILES | CTG-3D luminescence at 96 h
COc1cc2c(Oc3ccc4[nH]c(C)cc4c3F)ncnc2cc1OCCCN1CCCC1 [cediranib] | 1.42
CC(C)n1nc(-c2ccc3oc(N)nc3c2)c2c(N)ncnc21 [sapanisertib] | 0.447
Cc1cc(Nc2ncnc3ccc(NC4=NC(C)(C)CO4)cc23)ccc1Oc1ccn2ncnc2c1 [tucatinib] | 1.83
C[C@H](NC(=O)CCC(F)(F)F)C(=O)N[C@@H]1C(=O)N(CCO)c2ncccc2-c2ccccc21 [crenigacestat] | 1.79
C[C@]12CC[C@@H]3c4ccc(O)cc4C[C@@H](CCCCCCCCC[S+]([O-])CCCC(F)(F)C(F)(F)F)[C@H]3[C@@H]1CC[C@@H]2O (some centres not stated) [fulvestrant] | 1.96
O=C(c1ccc(F)c(F)c1Nc1ccc(I)cc1F)N1CC(O)([C@@H]2CCCCN2)C1 [cobimetinib] | 1.6
O=C(/C=C/c1cccnc1)NCCCCC1CCN(C(=O)c2ccccc2)CC1 [FK866] | 0.227
CS(=O)(=O)c1ccc(C(=O)Nc2ccc(Cl)c(-c3ccccn3)c2)c(Cl)c1 [vismodegib] | 1.71
C=CCn1c(=O)c2cnc(Nc3ccc(N4CCN(C)CC4)cc3)nc2n1-c1cccc(C(C)(C)O)n1 [adavosertib] | 0.816

Same assay, conditions: 1 µM; days in culture: 103

SMILES | CTG-3D luminescence at 96 h
COc1cc2c(Oc3ccc4[nH]c(C)cc4c3F)ncnc2cc1OCCCN1CCCC1 [cediranib] | 2.66
CC(C)n1nc(-c2ccc3oc(N)nc3c2)c2c(N)ncnc21 [sapanisertib] | 1.26
Cc1cc(Nc2ncnc3ccc(NC4=NC(C)(C)CO4)cc23)ccc1Oc1ccn2ncnc2c1 [tucatinib] | 3.5
C[C@H](NC(=O)CCC(F)(F)F)C(=O)N[C@@H]1C(=O)N(CCO)c2ncccc2-c2ccccc21 [crenigacestat] | 3.09
C[C@]12CC[C@@H]3c4ccc(O)cc4C[C@@H](CCCCCCCCC[S+]([O-])CCCC(F)(F)C(F)(F)F)[C@H]3[C@@H]1CC[C@@H]2O (some centres not stated) [fulvestrant] | 3.26
O=C(c1ccc(F)c(F)c1Nc1ccc(I)cc1F)N1CC(O)([C@@H]2CCCCN2)C1 [cobimetinib] | 2.72
O=C(/C=C/c1cccnc1)NCCCCC1CCN(C(=O)c2ccccc2)CC1 [FK866] | 0.904
CS(=O)(=O)c1ccc(C(=O)Nc2ccc(Cl)c(-c3ccccn3)c2)c(Cl)c1 [vismodegib] | 2.91
C=CCn1c(=O)c2cnc(Nc3ccc(N4CCN(C)CC4)cc3)nc2n1-c1cccc(C(C)(C)O)n1 [adavosertib] | 1.62

Same assay, conditions: 10 µM; days in culture: 52

SMILES | CTG-3D luminescence at 96 h
COc1cc2c(Oc3ccc4[nH]c(C)cc4c3F)ncnc2cc1OCCCN1CCCC1 [cediranib] | 0.221
CC(C)n1nc(-c2ccc3oc(N)nc3c2)c2c(N)ncnc21 [sapanisertib] | 0.249
Cc1cc(Nc2ncnc3ccc(NC4=NC(C)(C)CO4)cc23)ccc1Oc1ccn2ncnc2c1 [tucatinib] | 2.2
C[C@H](NC(=O)CCC(F)(F)F)C(=O)N[C@@H]1C(=O)N(CCO)c2ncccc2-c2ccccc21 [crenigacestat] | 2.23
C[C@]12CC[C@@H]3c4ccc(O)cc4C[C@@H](CCCCCCCCC[S+]([O-])CCCC(F)(F)C(F)(F)F)[C@H]3[C@@H]1CC[C@@H]2O (some centres not stated) [fulvestrant] | 2.56
O=C(c1ccc(F)c(F)c1Nc1ccc(I)cc1F)N1CC(O)([C@@H]2CCCCN2)C1 [cobimetinib] | 1.67
O=C(/C=C/c1cccnc1)NCCCCC1CCN(C(=O)c2ccccc2)CC1 [FK866] | 0.139
CS(=O)(=O)c1ccc(C(=O)Nc2ccc(Cl)c(-c3ccccn3)c2)c(Cl)c1 [vismodegib] | 2.15
C=CCn1c(=O)c2cnc(Nc3ccc(N4CCN(C)CC4)cc3)nc2n1-c1cccc(C(C)(C)O)n1 [adavosertib] | 0.21

— the supplement of paper PMC8882468
